Tests used:
POLCO (wild buckwheat) = test: Pre-emergence herbicidal activity, cool season; assay type: in vivo, Polygonum convolvulus; details: lowest tested rate with 80% or greater inhibition; rates 300, 100, 30, 10 g/ha; about 14 days
In short: (§1)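 Pre-emergence soil-surface spray; rates 300/100/30/10 g/ha; acetone:water 50:50 diluent. Warm-season species (PANMI, DIGSA) grown at 30/21 °C, cool-season species (ALOMY, POLCO) at 18/13 °C. Inhibition scored ~14 d after treatment versus untreated controls → GR80.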

AVEFA (wild oat) = test: Pre-emergence herbicidal activity, cool season; assay type: in vivo, Avena fatua; details: GR80 = lowest tested rate (300, 100, 30, 10 g/ha) with 80% or greater inhibition; approx. 14 days after treating; 18/13° C.
In short: (§2)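 GR80 values derive from percent inhibition relative to untreated plants, read roughly 14 days after sowing and pre-emergence soil-surface treatment (compound in 50:50 acetone/water; rates typically 10, 30, 100, 300 g/ha). Warm-season weeds grew at 30/21° C day/night, cool-season ones at 18/13° C; an asterisk marks activity without reaching 80% at the highest rate.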

[1] = system: AEGCY (jointed goatgrass); test: Pre-emergence herbicidal activity, cool season; assay type: in vivo, Aegilops cylindrica; details: GR80 = lowest tested rate (300, 100, 30, 10 g/ha) with 80% or greater inhibition; approx. 14 days after treating; 18/13° C.
Protocol: (§3) Tables 5 to 8 summarize results of tests conducted as described below to determine the pre-emergence herbicidal activity, in the form of a GR80 value, of illustrative compounds of this invention. […] Compounds of the invention were typically applied at rates of 300, 100, 30, and 10 g/ha. Where herbicidal activity was evident but 80% inhibition was not achieved at the highest rate tested, an asterisk (*) is shown in the following tables.
(§4) The pre-emergence tests were conducted by the following procedure. Topsoil was sieved to pass through a 1.27 cm screen. Fertilizer was added to the topsoil and the mixture was then sterilized by heating. The topsoil mixture was placed in a pot and compacted to a depth of 1.0 to 1.25 cm from the top of the pot. Seeds of each of several monocotyledonous and dicotyledonous annual plant species were placed on top of the soil. Additional soil was subsequently placed over the seeds to level-fill the pot. A known amount of each test compound dissolved or suspended in an appropriate organic solvent was diluted with a 50:50 mix of acetone and water and applied to the surface of the soil. After treatment the plants were placed in a greenhouse where they received 0.64 cm of overhead irrigation. All subsequent watering consisted of a light overhead mist and/or subirrigation as needed for germination and growth. Tables 5 and 6 below relate to warm season plant species which were placed after pre-emergence treatment in a greenhouse with a 30/21° C. day/night temperature regime. Tables 7 and 8 below relates to cool season plant species placed after pre-emergence treatment in a greenhouse or growth chamber with an 18/13° C. day/night temperature regime.
(§5) Approximately 14 days after planting and treating, the plants were observed and herbicidal efficacy recorded as percent inhibition by comparison with untreated plants.
(§6) The plant species usually regarded as weeds which were utilized in the tests are identified in the tables below according to the following legend, in which “d” indicates a dicotyledonous species and “m” a monocotyledonous species. All monocotyledonous species included in the tests herein are grasses.

SASKR (russian thistle) = test: Pre-emergence herbicidal activity, cool season; assay type: in vivo, Salsola kali; details: lowest tested rate with 80% or greater inhibition; rates 300, 100, 30, 10 g/ha; about 14 days
In short: as §2

POROL (common purslane) = test: Pre-emergence herbicidal activity, warm season; assay type: in vivo, Portulaca oleracea; details: GR80 = lowest tested rate (300, 100, 30, 10 g/ha) with 80% or greater inhibition; approx. 14 days after treating; 30/21° C.
In short: as §2

PANDI (fall panicum) = test: Pre-emergence herbicidal activity, warm season; assay type: in vivo, Panicum dichotomiflorum; details: GR80 = lowest tested rate (300, 100, 30, 10 g/ha) with 80% or greater inhibition; approx. 14 days after treating; 30/21° C.
In short: (§7)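 Seeds sown in sterilised fertilised topsoil received surface-applied compound in 50:50 acetone/water, typically at 300, 100, 30 and 10 g/ha, then greenhouse-grown at 30/21° C (warm-season species) or 18/13° C (cool-season species). Percent inhibition versus untreated plants was scored at about 14 days, giving GR80; an asterisk marks activity short of 80% at the top rate.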

[2] = system: AGSST (creeping bentgrass); test: Pre-emergence herbicidal activity, cool season; assay type: in vivo, Agrostis stolonifera; details: GR80 = lowest tested rate (300, 100, 30, 10 g/ha) with 80% or greater inhibition; approx. 14 days after treating; 18/13° C.
In short: as §2

SETVI (green foxtail) = test: Pre-emergence herbicidal activity, cool season; assay type: in vivo, Setaria viridis; details: GR80 = lowest tested rate (300, 100, 30, 10 g/ha) with 80% or greater inhibition; approx. 14 days after treating; 18/13° C.
In short: as §2

[3] = system: LAMPU (purple deadnettle); test: Pre-emergence herbicidal activity, cool season; assay type: in vivo, Lamium purpureum; details: lowest tested rate with 80% or greater inhibition; rates 300, 100, 30, 10 g/ha; about 14 days
In short: as §2

[4] = system: PANMI (wild proso millet); test: Pre-emergence herbicidal activity, warm season; assay type: in vivo, Panicum miliaceum; details: GR80 = lowest tested rate (300, 100, 30, 10 g/ha) with 80% or greater inhibition; approx. 14 days after treating; 30/21° C.
In short: as §1

STEME (common chickweed) = test: Pre-emergence herbicidal activity, cool season; assay type: in vivo, Stellaria media; details: lowest tested rate with 80% or greater inhibition; rates 300, 100, 30, 10 g/ha; about 14 days
In short: as §2

[5] = system: CHEAL (common lambsquarters); test: Pre-emergence herbicidal activity, warm season; assay type: in vivo, Chenopodium album; details: GR80 = lowest tested rate (300, 100, 30, 10 g/ha) with 80% or greater inhibition; approx. 14 days after treating; 30/21° C.
In short: as §2

[6] = system: VERPE (creeping speedwell); test: Pre-emergence herbicidal activity, cool season; assay type: in vivo, Veronica persicaria; details: lowest tested rate with 80% or greater inhibition; rates 300, 100, 30, 10 g/ha; about 14 days
In short: as §2

[7] = system: BRAPP (broadleaf signalgrass); test: Pre-emergence herbicidal activity, warm season; assay type: in vivo, Brachiaria platyphylla; details: GR80 = lowest tested rate (300, 100, 30, 10 g/ha) with 80% or greater inhibition; approx. 14 days after treating; 30/21° C.
In short: as §7

[8] = system: AGRRE (quackgrass (seedling)); test: Pre-emergence herbicidal activity, cool season; assay type: in vivo, Elymus repens; details: GR80 = lowest tested rate (300, 100, 30, 10 g/ha) with 80% or greater inhibition; approx. 14 days after treating; 18/13° C.
Protocol: as §3, §4, §5, §6

SOLNI (black nightshade) = test: Pre-emergence herbicidal activity, warm season; assay type: in vivo, Solanum nigrum; details: GR80 = lowest tested rate (300, 100, 30, 10 g/ha) with 80% or greater inhibition; approx. 14 days after treating; 30/21° C.
In short: as §2

[9] = system: GALAP (catchweed bedstraw); test: Pre-emergence herbicidal activity, cool season; assay type: in vivo, Galium aparine; details: lowest tested rate with 80% or greater inhibition; rates 300, 100, 30, 10 g/ha; about 14 days
In short: as §2

SETFA (giant foxtail) = test: Pre-emergence herbicidal activity, warm season; assay type: in vivo, Setaria faberi; details: GR80 = lowest tested rate (300, 100, 30, 10 g/ha) with 80% or greater inhibition; approx. 14 days after treating; 30/21° C.
In short: as §7

DIGSA (large crabgrass) = test: Pre-emergence herbicidal activity, warm season; assay type: in vivo, Digitaria sanguinalis; details: GR80 = lowest tested rate (300, 100, 30, 10 g/ha) with 80% or greater inhibition; approx. 14 days after treating; 30/21° C.
In short: as §1

[10] = system: SORHA (johnsongrass (seedling)); test: Pre-emergence herbicidal activity, warm season; assay type: in vivo, Sorghum halepense; details: GR80 = lowest tested rate (300, 100, 30, 10 g/ha) with 80% or greater inhibition; approx. 14 days after treating; 30/21° C.
In short: as §7

SINAR (wild mustard) = test: Pre-emergence herbicidal activity, cool season; assay type: in vivo, Sinapis arvensis; details: lowest tested rate with 80% or greater inhibition; rates 300, 100, 30, 10 g/ha; about 14 days
In short: as §2

ALOMY (blackgrass) = test: Pre-emergence herbicidal activity, cool season; assay type: in vivo, Alopecurus myosuroides; details: GR80 = lowest tested rate (300, 100, 30, 10 g/ha) with 80% or greater inhibition; approx. 14 days after treating; 18/13° C.
In short: as §1

ECHCG (barnyardgrass) = test: Pre-emergence herbicidal activity, warm season; assay type: in vivo, Echinochloa crus-galli; details: GR80 = lowest tested rate (300, 100, 30, 10 g/ha) with 80% or greater inhibition; approx. 14 days after treating; 30/21° C.
In short: as §7

SORVU (shattercane) = test: Pre-emergence herbicidal activity, warm season; assay type: in vivo, Sorghum vulgare; details: GR80 = lowest tested rate (300, 100, 30, 10 g/ha) with 80% or greater inhibition; approx. 14 days after treating; 30/21° C.
In short: as §7

LOLMG (annual ryegrass) = test: Pre-emergence herbicidal activity, cool season; assay type: in vivo, Lolium multiflorum; details: GR80 = lowest tested rate (300, 100, 30, 10 g/ha) with 80% or greater inhibition; approx. 14 days after treating; 18/13° C.
In short: as §2

CCCN(CC)C(=O)n1cnc(S(=O)(=O)C(F)(F)SCC)n1 [Example 51]
Pre-emergence activity GR80, POLCO (POLCO (wild buckwheat)): 100 g/ha | Pre-emergence activity (GR80) AVEFA (AVEFA (wild oat)): 300 g/ha | Pre-emergence activity (GR80) AEGCY [1]: 300 g/ha | Pre-emergence activity GR80, SASKR (SASKR (russian thistle)): 100 g/ha | Pre-emergence activity (GR80) POROL (POROL (common purslane)): 300 g/ha | Pre-emergence activity (GR80) PANDI (PANDI (fall panicum)): 100 g/ha | Pre-emergence activity (GR80) AGSST [2]: 10 g/ha | Pre-emergence activity (GR80) SETVI (SETVI (green foxtail)): 100 g/ha | Pre-emergence activity GR80, LAMPU [3]: 10 g/ha | Pre-emergence activity (GR80) PANMI [4]: 100 g/ha | Pre-emergence activity GR80, STEME (STEME (common chickweed)): 10 g/ha | Pre-emergence activity (GR80) CHEAL [5]: 10 g/ha | Pre-emergence activity GR80, VERPE [6]: 10 g/ha | Pre-emergence activity (GR80) BRAPP [7]: 100 g/ha | Pre-emergence activity (GR80) AGRRE [8]: 300 g/ha | Pre-emergence activity (GR80) SOLNI (SOLNI (black nightshade)): 300 g/ha | Pre-emergence activity GR80, GALAP [9]: 100 g/ha | Pre-emergence activity (GR80) SETFA (SETFA (giant foxtail)): 100 g/ha | Pre-emergence activity (GR80) DIGSA (DIGSA (large crabgrass)): 100 g/ha | Pre-emergence activity (GR80) SORHA [10]: 100 g/ha | Pre-emergence activity GR80, SINAR (SINAR (wild mustard)): 10 g/ha | Pre-emergence activity (GR80) ALOMY (ALOMY (blackgrass)): 300 g/ha | Pre-emergence activity (GR80) ECHCG (ECHCG (barnyardgrass)): 100 g/ha | Pre-emergence activity (GR80) SORVU (SORVU (shattercane)): 30 g/ha | Pre-emergence activity (GR80) LOLMG (LOLMG (annual ryegrass)): 100 g/ha

— patent publication US6461997B1, “Triazole sulfones having herbicidal activity” (Monsanto Technology LLC, priority 1999, dated 2002)
